In patent publication US7989212B2, “Detection of blood plasma schizadrin B of dissipating blood stasis botanical” (Shanghai Sundise, priority 2007, dated 2011):

Experiment: UPLC/MS detection of schizadrin B in blood plasma after administration of strengthening body resistance and dissipating blood stasis botanical
Assay type: in vivo
Conditions: plasma of mammals after drenching with the botanical; FIG. 1: rat plasma 0.5 hours after administration; ethyl acetate extraction, UPLC/MS positive ion mode
Protocol: Detection method of blood plasma schizadrin B of strengthening body resistance and dissipating blood stasis botanical includes the following steps: • (1) Pretreatment of mammalian plasma samples • a. Mammal plasma containing drugs after being administered the strengthening body resistance and dissipating blood stasis botanical was extracted with ethyl acetate at the volume ratio of 1:4, whirling for 3 to 5 min, then centrifuging at 9600 rpm for 10 min; and drying and enriching the supernatant under the condition of 25 to 30° C.; • b. Redissolve eluent with mobile phase and then analyze it with UPLC/MS; • (2) UPLC/MS detection
UPLC condition: chromatographic column: ACQUITY UPLC BEH C18 (a type of chromatographic column), 2.1×100 mm, mobile phase A: Water-Acetonitrile-Formic acid 95:5:0.1 v/v/v, mobile phase B: Acetonitrile-Formic acid 100:0.1 v/v; MS condition: electrospray ionization (ESI) ion source, detection with positive ion mode, scanning at the range of m/z 150 to 1200.
The described step (2) detects with the positive ion mode; the desolvation gas flow is 440 L/h, the desolvation gas temperature is 300° C., the cone gas flow is 50 L/h, the ion source temperature is 100° C., the spray capillary voltage is 3800 V, the sampling cone voltage is 30V, the extracting cone voltage is 2.00 V, the lens voltage is 0.1 V, and the mass scanning at the range of m/z 150 to 1200.
1. […]

- detection of schizadrin B in blood plasma: can be detected
SMILES: COc1cc2c(c(OC)c1OC)-c1c(cc3c(c1OC)OCO3)CC(C)C(C)C2 (stereo not shown) [Schizadrin B]
